Source: patent publication US20100160297A1, “COMPOUNDS FOR PIM KINASE INHIBITION AND FOR TREATING MALIGNANCY” (Amnestix, Inc., priority 2008, published 2010)
“Also recorded” adds a separate entry of the source. Structures can show the parent of a compound that is named as a salt.

Target: T1, PIM-1 kinase (Homo sapiens, UniProt P11309)
T1 construct: purchased Cell Signaling Technology Inc., Boston, USA
Assay: In vitro assay for PIM-1 kinase inhibition (PIM-1 Kinase Assay Kit, colorimetric ELISA)
Type: biochemical
Details: test compound 100 μM final concentration; normalized to positive control (no test compound) = 100% activity; 1.5 or 2.5 ng PIM-1 kinase, 200 μM ATP
Procedure: (§1) In vitro assays of PIM-1 kinase activity (1.5 ng) in the presence of increasing concentrations of the compounds A, B, C or D were performed as described within example 5. An assay without additional test compound served as positive control for the assay (pos) and an assay without PIM-1 kinase served as negative assay (neg). […] Each assay result was normalized in comparison to the positive control which was defined as 100% activity.
as §1, with “(2.5” for “(1.5”, “compound E” for “compounds A, B, C or D”
The in vitro assay for PIM-1 kinase inhibition was performed using the PIM-1 Kinase Assay Kit (Cell Signaling Technology Inc., Boston, USA) according to the manufacture's instruction. Briefly, 1.5 or 2.5 ng PIM-1 kinase has been dissolved in 50 μl assay buffer (25 mM Tris-Hcl (pH 7.5), 10 mM MgCl2, 5 mM beta-glycerophosphate, 0.1 mM Na3VO4, 2 mM DTT, 200 μM ATP, and 1.5 μM peptide substrate) and test compound has been added to a final concentration in a range of 0.1 to 100 μM. After 30 minutes incubation at ambient temperature the reaction was stopped by adding 50 μl Stop buffer (50 mM EDTA, pH 8) per reaction. An aliquot of 25 μl per reaction was diluted each by 75 μl water and transferred to a 96-well streptavidin-coated plate. After 60 minutes incubation and three times washing with PBS, 100 μl/well primary antibody (Phospho-Bad (Ser112) antibody, 1:1000 diluted in PBS) was added. After further 2 h incubation and three times washing with PBS, an usual colorimetric ELISA assay was performed using a HRP labeled second antibody according to the manufacture's instructions. A PIM kinase reaction without addition of a test compound served as positive control (pos) and an assay without PIM kinase served as negative control (neg). […] The PIM-1 kinase inhibition of the test compounds (1-chloro-5-([1,4]diazepane-1-sulfonyl)-8-propoxy-isoquinoline (compound A), 1-chloro-5-(piperazin-1-sulfonyl)-8-methoxy-isoquinoline (compound B), 1-methyl-5-([1,4]diazepane-1-sulfonyl)-8-methoxy-isoquinoline (compound C), and 1-chloro-5-([1,4]diazepane-1-sulfonyl)-6-methoxy-isoquinoline (compound D)) was measured in a first series of assays, and the one of the compound 5-([1,4]diazepane-1-sulfonyl)-8-methoxy-isoquinoline (compound E) was measured in a second series of assays. Within each series of assays the measured PIM-1 kinase activity was normalized in comparison to the positive control (pos) which was defined as 100% activity. […] The table below summarizes the percentage of the remaining PIM-1 kinase activity in the presence of the test compounds in a final concentration of 100 μM.

T1 sequence (P11309 whole entry): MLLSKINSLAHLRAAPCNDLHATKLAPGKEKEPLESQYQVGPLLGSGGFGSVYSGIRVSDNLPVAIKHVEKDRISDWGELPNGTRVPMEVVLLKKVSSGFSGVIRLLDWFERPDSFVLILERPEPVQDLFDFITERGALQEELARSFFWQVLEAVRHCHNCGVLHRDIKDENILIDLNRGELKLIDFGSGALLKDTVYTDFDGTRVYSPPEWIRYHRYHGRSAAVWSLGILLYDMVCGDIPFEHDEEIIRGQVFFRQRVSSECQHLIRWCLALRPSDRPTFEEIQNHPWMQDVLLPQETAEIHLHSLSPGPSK

Structure (SMILES) | % remaining PIM-1 kinase activity [%]
COc1ccc(S(=O)(=O)N2CCCNCC2)c2ccnc(Cl)c12 [G, 1-chloro-8-methoxy-Fasudil, reference compound] | 17

Same assay, conditions: test compound 0.1 to 100 μM; FIG. 1 (1.5 ng PIM-1) and FIG. 2 (2.5 ng PIM-1)

Structure (SMILES) | PIM-1 kinase inhibition (result in words)
COc1ccc(S(=O)(=O)N2CCCNCC2)c2ccnc(C)c12 [C, 1-methyl-5-([1,4]diazepane-1-sulfonyl)-8-methoxy-isoquinoline] | potent PIM inhibitory effect; also recorded: potent PIM-1 kinase inhibitors
O=S(=O)(c1cccc2cnccc12)N1CCCNCC1 [F, Fasudil, reference compound] | at the most very weak PIM-1 inhibition
CCCOc1ccc(S(=O)(=O)N2CCCNCC2)c2ccnc(Cl)c12 [Compound A, 1-chloro-5-([1,4]diazepane-1-sulfonyl)-8-propoxy-isoquinoline] | potent PIM inhibitory effect; also recorded: potent PIM-1 kinase inhibitors
COc1ccc(S(=O)(=O)N2CCCNCC2)c2ccncc12 [E, 5-([1,4]diazepane-1-sulfonyl)-8-methoxy-isoquinoline] | at most a moderate PIM-1 kinase inhibition; also recorded: only weak PIM inhibitory effect
COc1ccc(S(=O)(=O)N2CCCNCC2)c2ccnc(Cl)c12 [G, 1-chloro-8-methoxy-Fasudil, reference compound] | very potent PIM-1 inhibitor
COc1ccc(S(=O)(=O)N2CCNCC2)c2ccnc(Cl)c12 [B, 1-chloro-5-(piperazin-1-sulfonyl)-8-methoxy-isoquinoline] | potent PIM inhibitory effect; also recorded: potent PIM-1 kinase inhibitors
COc1ccc2c(Cl)nccc2c1S(=O)(=O)N1CCCNCC1 [D, 1-chloro-5-([1,4]diazepane-1-sulfonyl)-6-methoxy-isoquinoline] | potent PIM inhibitory effect; also recorded: potent PIM-1 kinase inhibitors

Tested on: not given
Assay: not given
Details: not given

Structure (SMILES) | melting point [°C]
COc1ccc2c(Cl)nccc2c1S(=O)(=O)N1CCCNCC1 (as salt: hydrochloride) [1-chloro-5-([1,4]diazepane-1-sulfonyl)-6-methoxy-isoquinoline] | 219 to 221
